Measurements from the supplement of paper PMC8960247.
± gives the standard error.

What was measured:
621-103 (TSC2-rescued) = test: relative viability vs DMSO; higher = less cytotoxic; details: serum: 10% FBS, 72 h
621-102 (TSC2-deficient) = test: as above; details: serum: 10% FBS, 72 h
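Also: immortalized renal angiomyolipoma cells stably carrying empty vector or TSC2, dosed in 384-well plates in DMEM, viability normalized to vehicle-treated wells within each plate.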

| Compound | relative viability (621-103 (TSC2-rescued); 0.0001 µM) [%] | relative viability (621-103 (TSC2-rescued); 0.001 µM) [%] | relative viability (621-103 (TSC2-rescued); 0.01 µM) [%] | relative viability (621-103 (TSC2-rescued); 0.1 µM) [%] | relative viability (621-103 (TSC2-rescued); 1 µM) [%] | relative viability (621-103 (TSC2-rescued); 10 µM) [%] | relative viability (621-102 (TSC2-deficient); 0.0001 µM) [%] | relative viability (621-102 (TSC2-deficient); 0.001 µM) [%] | relative viability (621-102 (TSC2-deficient); 0.01 µM) [%] | relative viability (621-102 (TSC2-deficient); 0.1 µM) [%] | relative viability (621-102 (TSC2-deficient); 1 µM) [%] | relative viability (621-102 (TSC2-deficient); 10 µM) [%] |
| --- | --- | --- | --- | --- | --- | --- | --- | --- | --- | --- | --- | --- |
| C=CC(=O)N1CCC[C@@H](n2nc(-c3ccc(Oc4ccccc4)cc3)c3c(N)ncnc32)C1 | 99.6 ± 3.6 | 97.1 ± 1.7 | 98.8 ± 1.5 | 103 ± 3 | 108.4 ± 0.78 | 105 ± 3.9 | 108 ± 3.1 | 99.6 ± 2.7 | 102 ± 1.1 | 108 ± 4.7 | 112.7 ± 0.33 | 110 ± 4.6 |
| CC(=O)c1c(C)c2cnc(Nc3ccc(N4CCNCC4)cn3)nc2n(C2CCCC2)c1=O | 102.3 ± 0.35 | 104.8 ± 0.95 | 100.9 ± 0.84 | 104.4 ± 0.59 | 106.6 ± 0.72 | 76.7 ± 1.6 | 103 ± 1.6 | 109.7 ± 0.24 | 110 ± 2.1 | 109 ± 5 | 115 ± 1.2 | 79 ± 4.2 |
| CC(C)(C(=O)NCC(F)(F)C(F)(F)F)C(=O)N[C@@H]1C(=O)Nc2ccccc2-c2ccccc21 | 102.1 ± 0.81 | 104 ± 1.3 | 104.2 ± 0.26 | 106 ± 1.1 | 103.7 ± 0.41 | 101.8 ± 0.77 | 110 ± 1.1 | 115 ± 1.2 | 119.5 ± 0.86 | 113.8 ± 0.66 | 114.3 ± 1.1 | 113 ± 1.8 |
| CC(C)(C)Cn1c(N)nc2ccc(-c3[nH]c(C(C)(C)C)nc3-c3ccc(F)cc3)nc21 | 94.2 ± 2.7 | 98.1 ± 2.3 | 97.1 ± 3.8 | 95.4 ± 1.8 | 93.7 ± 0.94 | 78.75 ± 0.41 | 100 ± 4.4 | 99.6 ± 4.4 | 100 ± 2.6 | 107 ± 4.4 | 99.1 ± 3.6 | 95.24 ± 0.28 |
| CC(C)CC(=O)Nc1n[nH]c2c1CN(C(=O)C1CCN(C)CC1)C2(C)C | 100.3 ± 0.33 | 101 ± 2 | 102 ± 1.2 | 102 ± 1.3 | 94.4 ± 1.7 | 22.5 ± 1.5 | 105.5 ± 0.63 | 109 ± 4 | 103 ± 2.3 | 93.5 ± 0.62 | 79 ± 1.2 | 13.5 ± 0.25 |
| CC(C)c1cc(-c2ccc(F)c3ccccc23)nc(N)n1 | 96.2 ± 4.6 | 92.2 ± 4.8 | 97.9 ± 1.5 | 107 ± 3.5 | 101.7 ± 0.2 | 98.4 ± 1.7 | 91.6 ± 2.5 | 107 ± 7 | 99.3 ± 4.8 | 94.6 ± 1.2 | 93.4 ± 2.1 | 97.22 ± 0.33 |
| CC1(C)C(=O)N(CCN2CCC(C(=O)c3ccc(F)cc3)CC2)c2ccccc21 | 101 ± 2.5 | 97.9 ± 4.5 | 96.93 ± 0.26 | 101 ± 4.7 | 96.7 ± 2 | 94.8 ± 1.9 | 102.5 ± 0.86 | 103 ± 1.4 | 97.2 ± 4.5 | 97.5 ± 1.1 | 97 ± 1.2 | 97.4 ± 5.7 |
| CC1(C)CC(=O)c2c(C(F)(F)F)nn(-c3ccc(C(N)=O)c(N[C@H]4CC[C@H](OC(=O)CN)CC4)c3)c2C1 | 108 ± 4.1 | 111.5 ± 0.33 | 82.7 ± 3.9 | 7.92 ± 0.44 | 6.41 ± 0.23 | 7.58 ± 0.32 | 63.2 ± 4.8 | 65.7 ± 8 | 36.9 ± 4.2 | 18.7 ± 2.5 | 13.6 ± 2.5 | 17 ± 1.1 |
| CC1=C(C(=O)Nc2cc3cn[nH]c3cc2F)C(c2ccc(C(F)(F)F)cc2)CC(=O)N1 (configuration not stated) | 99 ± 0.99 | 98.74 ± 0.16 | 101 ± 3.5 | 101.2 ± 0.43 | 99.79 ± 0.91 | 96.4 ± 2.7 | 121 ± 2.4 | 104 ± 2.5 | 104.73 ± 0.024 | 108 ± 2 | 106 ± 2.2 | 85.826 ± 0.053 |
| CN(C)Cc1ccc(-c2nc3cccc4c3n2CCNC4=O)cc1 | 103.8 ± 0.6 | 101.41 ± 0.034 | 102 ± 1.3 | 105 ± 1.6 | 103 ± 0.17 | 97.7 ± 0.77 | 125 ± 2.7 | 120.04 ± 0.068 | 127 ± 1.8 | 119 ± 5 | 118 ± 2.8 | 110 ± 1.7 |
| CN(c1ncccc1CNc1nc(Nc2ccc3c(c2)CC(=O)N3)ncc1C(F)(F)F)S(C)(=O)=O | 106 ± 4.2 | 94.4 ± 5.1 | 102 ± 0.37 | 100.6 ± 0.65 | 97.5 ± 6.1 | 38.2 ± 5.9 | 99.84 ± 0.61 | 105 ± 2.5 | 97.1 ± 2.1 | 101 ± 1.2 | 94.8 ± 5.8 | 47.7 ± 8.3 |
| CN1CCN(c2ccc([N+](=O)[O-])c3no[n+]([O-])c23)CC1 | 75 ± 4.3 | 82.8 ± 4.1 | 87.4 ± 5.2 | 98.8 ± 1.6 | 96 ± 2.7 | 65.3 ± 5 | 102 ± 5.5 | 101.2 ± 1 | 105 ± 1.3 | 102 ± 1.3 | 103 ± 1.9 | 88.03 ± 0.45 |
| CNC(=O)c1ccc(C)c(-n2c(C)cc(OCc3ccc(F)cc3F)c(Br)c2=O)c1 | 102 ± 4.2 | 102 ± 2.3 | 99 ± 1 | 97.6 ± 0.99 | 99.4 ± 1.4 | 95 ± 2.2 | 105 ± 5.5 | 101 ± 2.1 | 109.06 ± 0.1 | 109 ± 1.6 | 97.8 ± 1.9 | 103 ± 0.24 |
| CNCc1ccc(-c2[nH]c3cc(F)cc4c3c2CCNC4=O)cc1 | 104 ± 1.2 | 104 ± 1.1 | 104.8 ± 0.35 | 107.6 ± 0.23 | 111 ± 1.2 | 88 ± 1.9 | 130 ± 2.7 | 109 ± 3.2 | 128 ± 4.3 | 126 ± 4 | 120 ± 1.7 | 98.5 ± 1.6 |
| COC(=O)N1CCN(Cc2cccc(NC(=O)Nc3ccc(C)nc3)c2F)CC1 | 103 ± 5.3 | 111 ± 1.7 | 110 ± 1.2 | 101 ± 2.6 | 108 ± 2.7 | 104 ± 2.6 | 93.8 ± 5.1 | 94.7 ± 5.8 | 97.5 ± 0.16 | 96.33 ± 0.19 | 85.15 ± 0.1 | 95.3 ± 1.4 |
| COc1cc(Nc2ncc(F)c(Nc3ccc4c(n3)N(COP(=O)(O)O)C(=O)C(C)(C)O4)n2)cc(OC)c1OC | 103 ± 1.3 | 104.7 ± 0.53 | 101 ± 1.2 | 102 ± 5 | 78.9 ± 2.7 | 14.7 ± 0.48 | 111.5 ± 1.1 | 107.4 ± 0.97 | 106.9 ± 0.48 | 94.91 ± 0.5 | 87.5 ± 2 | 57.13 ± 0.27 |
| COc1cc(OC)c(/C=C/S(=O)(=O)Cc2ccc(OC)c(NCC(=O)O)c2)c(OC)c1 | 100.5 ± 0.4 | 99 ± 1.7 | 98.7 ± 1.2 | 97.9 ± 1.8 | 47.98 ± 0.052 | 24.1 ± 0.81 | 109 ± 2.7 | 109 ± 2.2 | 103.2 ± 0.43 | 97.9 ± 1.3 | 42 ± 1.4 | 30.9 ± 0.31 |
| COc1cc(OC)c(NC(=O)Nc2cc(C)on2)cc1Cl | 113 ± 2.2 | 109 ± 3.5 | 105 ± 3.8 | 113 ± 2.9 | 109 ± 2.6 | 111 ± 2.2 | 83.6 ± 4.5 | 92 ± 5 | 97.3 ± 3.8 | 89.4 ± 4.5 | 96.7 ± 7 | 92.8 ± 3.9 |
| COc1cc2ncnc(Nc3cccc(Br)c3)c2cc1OC | 102 ± 1.5 | 102 ± 1.7 | 103.2 ± 1 | 98.4 ± 2.3 | 101 ± 1.6 | 92.1 ± 4.8 | 96.7 ± 1 | 107 ± 3.8 | 115 ± 5.2 | 105.5 ± 0.2 | 107.6 ± 0.58 | 75.6 ± 6.2 |
| COc1ccc(-c2cc3c(C)nc(N)nc3n([C@H]3CC[C@H](OCCO)CC3)c2=O)cn1 | 92.8 ± 1.8 | 98.4 ± 2.6 | 88.1 ± 2.7 | 56.7 ± 2 | 30.52 ± 0.21 | 18.61 ± 0.18 | 101 ± 5.6 | 110 ± 2.5 | 91.2 ± 5 | 65.6 ± 0.94 | 26.7 ± 0.68 | 14.1 ± 0.26 |
| COc1ccc(-c2ccc3c(N4CCOCC4)nc(N4C[C@@H](C)O[C@@H](C)C4)nc3n2)cc1CO | 99.9 ± 3 | 88.657 ± 0.066 | 102.1 ± 0.57 | 104 ± 1.4 | 83.1 ± 2.7 | 41.9 ± 0.85 | 74.3 ± 2.3 | 78 ± 8.3 | 65.8 ± 4.5 | 81.3 ± 2.2 | 70.087 ± 0.057 | 27.6 ± 1.1 |
